Measurements from patent EP0578521B1, “New peptide derivatives with bradykinin-antagonistic activity, process to prepare them and pharmaceutical compositions containing them” (ADIR ET COMPAGNIE, priority 1992, dated 1996).
Where two headings read alike, the source gives them in different places. Square brackets hold non-standard residues; d marks the D form. Peptide text beside a SMILES is read from it. * marks the point of attachment. Benzoyl(4-guanidino) = N=C(N)Nc1ccc(C(=O)*)cc1; Oic = O=C(O)[C@@H]1C[C@@H]2CCCC[C@@H]2N1; Hyp = O=C(O)[C@@H]1C[C@@H](O)CN1; dTic = O=C(O)[C@H]1Cc2ccccc2CN1; 2Thi = N[C@@H](Cc1cccs1)C(=O)O; Agp = N=C(N)NC[C@H](N)C(=O)O

What was measured:
[1] = system: Récepteur B2; format: cell-based, lapin
Protocol: Exemple 44 : Mesure in vitro de l'effet des dérivés de l'invention vis à vis de la réponse contractile du muscle lisse de la veine jugulaire de lapin induite par la bradykinine
Cette étude a été réalisée selon le protocole décrit par D. REGOLI et J. BARABE (Récepteur B2-Pharmacology of Bradykinin and related kinins, Pharm. Rev., 32, 1, 1-46, 1980). Des anneaux de veine jugulaire sont suspendus dans des chambres d'organes (40 ml) contenant une solution de KREBS thermostatée à 37°C, oxygénée en permanence par un bullage de 95 % 02/5 % CO2. La force isométrique développée par les anneaux est mesurée et enregistrée. La tension de base est d'environ 2 g. Les cuves reçoivent les concentrations du dérivé de l'invention à tester (10^-8M à 10^-5M), une cuve contrôle reçoit le solvant. Une courbe concentration réponse à la bradykinine est réalisée de 10^-10M à 10^-5M avec une progression par demi-log. La puissance des antagonistes à la bradykinine est mesurée à partir des courbes log dose-effet permettant la détermination des pA2 (logarithme négatif de la concentration molaire du dérivé de l'invention qui oblige à doubler la concentration de bradykinine pour obtenir le même effet). Lors de ce test, les dérivés de l'invention ont un pA2 compris entre 9 et 10. Plus particulièrement, le pA2 du composé de l'exemple 2 est égal à 9,1 ± 0,1, celui de l'exemple 3 est égal à 9,4 ± 0,1, celui de l'exemple 5 est égal à 9,3 ± 0,1.

[2] = system: oedème de la patte de rat induite par injection de carragénine; conditions: rat, 0,1 mg/kg I.V., at time 1 hour, versus vehicle control group
Excerpt: L'activité anti-inflammatoire des dérivés de l'invention a été mesurée en utilisant le modèle de l'oedème de la patte de rat induite par injection de carragénine (WINTER G. A. et coll. Proc. Soc. Exp. Biol. Med., 3, 544-547, 1960). Cette étude est effectuée sur rats mâles de 180-210 g par lot de 8. Les dérivés de l'invention sont administrés par voie I.V. au temps 0 précédant immédiatement l'injection de carragénine par voie sous-cutanée dans la plante de la patte arrière droite du rat (Carragénine lambda type IV, sigma, solution à 1 %, volume injecté 0,1 ml). Le volume de la patte aux différents temps de l'expérimentation est mesurée par plethysmographie. L'inhibition de l'oedème au temps 3 heures est calculée par rapport à un lot contrôle ayant reçu le véhicule et exprimée en pourcentage d'inhibition.

[3] = antagonism of bradykinin concentration-response curve (10^-10M to 10^-5M), rabbit jugular vein rings, compound 10^-8M to 10^-5M, 37°C

| Compound | pA2 [1, 3] | inhibition de l'oedème [2] | pA2 [1] |
| --- | --- | --- | --- |
| Gba-Arg-Pro-Hyp-Gly-Thi-Ser-[3,2-c]ttp-Oic-Arg [Exemple 2] | 9,1 ± 0,1 | 36% |  |
| N=C(N)NCCC[C@H](NC(=O)c1ccc(NC(=N)N)cc1)C(=O)N1CCC[C@H]1C(=O)N1C[C@H](O)C[C@H]1C(=O)NCC(=O)N[C@@H](Cc1cccs1)C(=O)N[C@@H](CO)C(=O)N1Cc2ccccc2C[C@@H]1C(=O)N1[C@H](C(=O)N[C@@H](CNC(=N)N)C(=O)O)C[C@@H]2CCCC[C@@H]21 [Exemple 5, Gba-Arg-Pro-Hyp-Gly-Thi-Ser-tic-Oic-Gpr-OH] ({Benzoyl(4-guanidino)}-RP[Hyp]G[2Thi]S[dTic][Oic][Agp]-OH) |  |  | 9,3 ± 0,1 |
| arg-Arg-Pro-Hyp-Gly-Thi-Ser-[3,2-c]ttp-Oic-Arg [Exemple 3] | 9,4 ± 0,1 | 36% |  |
